Reference: US9492456B2, “Valomaciclovir polymorphs” (EPIPHANY BIOSCIENCES, INC., priority 2007, dated 2016)
Entries after “also recorded” stand apart in the source; their conditions may differ. Like-named read-outs stand apart in the source and are kept apart here. One block for each compound: values may come before it.

Columns and labels:
[1] = Powder flow (Carr Index, tapped compressibility); format: physicochemical
Source text: The flow characteristics of the solid products of this invention can be measured by the Carr index [Pharmaceutical Preformulation and Formulation, A practical guide from candidate selection to commercial dosage form, Mark Gibson, Ed.; Interpharm Press, 2002; pages 386-7.) By subjecting a powder to mechanical forces, resistance to powder flow can be observed. The increase in bulk density (compressibility) of a powder subjected to tapping can be used to determine the Carr index. In some embodiments, the Polymorph A enriched valomaciclovir has a Carr index value range from about 35 to about 50.
By subjecting a powder to mechanical forces, resistance to powder flow can be observed. The increase in bulk density (compressibility) of a powder subjected to tapping can be used to determine the Carr index. This index was measured for each of the four recrystallized batches and tabulated below.
Powder flow characteristics were compared using the Carr Index. By subjecting a powder to mechanical forces, resistance to powder flow can be observed. The increase in bulk density (compressibility) of a powder subjected to tapping can be used to determine the Carr index. A summary of Carr indices and qualitative flow properties are summarized below in Table 13.
Batches were sieved to <1000 microns before testing. This was necessary to remove any clumps in the samples.

[2] = Particle and agglomerate size by polarized light microscopy in silicone oil; format: physicochemical
Source text: The particle size of the solid product of this invention can be evaluated in silicone oil using polarized light microscopy. In some embodiments, Polymorph A enriched valomaciclovir has particle size range from about 10 to about 300 microns as measured using this system.
Polarized light microscopy was used to evaluate the particle size range of the recrystallized samples in silicone oil. The particle size range is reported in Table 4 along with the powder flow data.
A Zeiss Universal microscope configured with a polarized visible light source and polarizable analyzer was used to evaluate the optical properties of the samples. Specimens were typically mounted on a microscope slide with a drop of immersion oil and a cover glass. Magnification was typically 250×. Observations of particle/crystal size and shape were recorded. The presence of birefringence was also noted.

[3] = Powder flow (Carr Index, tapped compressibility); format: physicochemical; details: visual observation
[4] = Competitive and non-competitive slurry experiments in ethanol (energy relationships); format: physicochemical
Protocol: Competitive slurry experiments were performed using mixtures (normally 50:50) of the forms in ethanol and agitating at approximately 25° C. for several days. Noncompetitive slurries were performed by agitating excess solids of one form in ethanol at room temperature. […] In both the competitive and noncompetitive slurry experiments, the solids were vacuum filtered and analyzed by XRD. The XRD patterns are used to determine if the undissolved solids had transformed into a different polymorphic form. In one case, a different polymorphic form emerged that was different than either of the two forms initially present. This indicates both original forms were metastable to the final form isolated.

[5] = Polymorph screening study, summary of forms; format: physicochemical; details: Table 12 summary
Protocol: A polymorph screening study was performed on valomaciclovir active pharmaceutical ingredient. The screen entailed recrystallizing the material using solvent recrystallization, recrystallization from the melt, annealing experiments, and slurry experiments. Overall, the API was recrystallized under more than 100 different crystal growth conditions and analyzed using powder x-ray diffraction. A chemometric treatment of the x-ray data was used to categorize the samples into different groups. These groups were studied using thermal, optical, spectroscopic and other tools to elucidate which groups represent unique solid state forms of the API.
The raw diffraction data generated from the polymorph screening experiments (solvent recrystallization, recrystallization from the melt, annealing, non-competitive slurries) were initially categorized into 8 different groups using a chemometric treatment. Analyses of these different groups were used to perform additional experiments (e.g. DSC, TGA, HSM, NMR, etc.) to refine the groups identified by the chemometric treatment.

[6] = tested on: human varicella zoster virus (VZV); details: cited from earlier work
Epstein-Barr virus (EBV) = details: cited from earlier work
[7] = tested on: human herpesvirus-6 (HHV-6); details: cited from earlier work
HSV-I = details: cited from earlier work
HSV-2 = details: cited from earlier work
[8] = Water solubility / lipophilicity of the API; format: physicochemical
[9] = human, multiple dosing, total daily doses of up to 6.0 g; cited from earlier work
zoster = details: suspension, 250, 500 and 750 mg BID for 7 days, zoster patients, acyclovir control; cited from earlier work
[10] = Table 2, earlier valomaciclovir batches, sieved to <1000 microns
[11] = Table 2, earlier batches, no unit in table (microns)

Compound: CCCCCCCCCCCCCCCCCC(=O)OC[C@@H](CCn1cnc2c(=O)[nH]c(N)nc21)COC(=O)[C@@H](N)C(C)C [Batch 12-03-018]
Carr Index [1, 10]: 48
Agglomerate Size [2, 11]: 100
Typical Particle Size Range [2, 11]: 5-40

Compound: CCCCCCCCCCCCCCCCCC(=O)OCC(CCOC(=O)C(N)C(C)C)Cn1cnc2c(=O)[nH]c(N)nc21 (stereo not shown) [Batch 52772-2-7]
Carr Index ([1]; Table 4, recrystallized samples (ethanol or SDA 3C), listed as 52772-2-7): 53
Typical Particle Size Range ([2]; Table 4, recrystallized samples, in silicone oil, no unit in table, listed as 52772-2-7): 20-50

Compound: CCCCCCCCCCCCCCCCCC(=O)OCC(CCOC(=O)C(N)C(C)C)Cn1cnc2c(=O)[nH]c(N)nc21 (stereo not shown) [Batch 52772-3-17]
Carr Index ([1]; Table 4, recrystallized samples (ethanol or SDA 3C), listed as 52772-3-17): 56
Typical Particle Size Range ([2]; Table 4, recrystallized samples, in silicone oil, no unit in table, listed as 52772-3-17): 10-30

Compound: CCCCCCCCCCCCCCCCCC(=O)OC[C@H](CCOC(=O)[C@@H](N)C(C)C)Cn1cnc2c(=O)[nH]c(N)nc21 [Batch 52772-5-8]
Carr Index ([1]; Table 4, recrystallized samples (ethanol or SDA 3C), listed as 52772-5-8): 44
Typical Particle Size Range ([2]; Table 4, recrystallized samples, in silicone oil, no unit in table, listed as 52772-5-8): 35-50

Compound: CCCCCCCCCCCCCCCCCC(=O)OC[C@H](CCOC(=O)[C@@H](N)C(C)C)Cn1cnc2c(=O)[nH]c(N)nc21 [Batch 52772-8-10]
Carr Index ([1]; Table 4, recrystallized samples (ethanol or SDA 3C), listed as 52772-8-10): 38
Typical Particle Size Range ([2]; Table 4, recrystallized samples, in silicone oil, no unit in table, listed as 52772-8-10): 150-300

Compound: CCCCCCCCCCCCCCCCCC(=O)OC[C@H](CCOC(=O)[C@@H](N)C(C)C)Cn1cnc2c(=O)[nH]c(N)nc21 [Batch 146756]
Flowability (in words) [1]: extremely poor flowability
Carr Index [1, 10]: 64
Agglomerate Size [2, 11]: 200
Typical Particle Size Range [2, 11]: 5-20
Handleability and powder flow [3]: poor handleability and poor powder flow

Compound: CCCCCCCCCCCCCCCCCC(=O)OC[C@@H](CCn1cnc2c(=O)[nH]c(N)nc21)COC(=O)[C@@H](N)C(C)C [Form A]
Flowability (in words) ([1]; listed as Polymorph A): more flowable
Flowability (in words) ([1]; listed as Polymorph A enriched valomaciclovir): good flow characteristics
Thermodynamic stability (in words) ([4]; from slurry experiments and thermal behaviour): most stable polymorphic form; also recorded: more thermodynamically stable than the B polymorphs; also recorded: thermodynamically stable form
Thermodynamic stability (in words) ([4]; from slurry experiments and thermal behaviour, listed as Polymorph A): thermodynamically the most stable polymorph of valomaciclovir
Relative solubility of polymorphic forms (in words) ([4]; inferred from slurry conversion / enantiotropic relationship): less soluble
Description (stability class of the polymorphic form) [5]: Thermodynamically

Compound: Nc1nc2c(ncn2C[C@H](CO)CCO)c(=O)[nH]1 [Form H2G]
Antiviral activity (in words) [6]: potent activity
Antiviral activity (in words) (Epstein-Barr virus (EBV)): potent activity
Antiviral activity (in words) [7]: potent activity
Antiviral activity (in words) (HSV-I): potent activity
Antiviral activity (in words) (HSV-2): potent activity

Compound: CCCCCCCCCCCCCCCCCC(=O)OCC(CCn1cnc2c(=O)[nH]c(N)nc21)COC(=O)C(N)C(C)C (stereo not shown) [Form H]
Relative solubility of polymorphic forms (in words) [4]: more soluble
Thermodynamic stability (in words) [4]: less thermodynamically stable than the B polymorphs

Compound: CCCCCCCCCCCCCCCCCC(=O)OC[C@H](CCOC(=O)[C@@H](N)C(C)C)Cn1cnc2c(=O)[nH]c(N)nc21 [valomaciclovir, L-valine, (3R)-3-[(2-amino-1,6-dihydro-6-oxo-9H-purin-9-yl)methyl]-4-[(1-oxooctadecyl)oxy]butyl ester]
Lipophilicity (in words) [8]: fairly lipophilic
Solubility in water (in words) ([8]; water): practically insoluble in water
Safety and tolerability [9]: safe and well tolerated
Zoster lesion healing (zoster): proof-of-concept for zoster lesion healing

Now from value to compound:

Description (stability class of the polymorphic form) [5]: Metastable Polymorph
Compound: CCCCCCCCCCCCCCCCCC(=O)OCC(CCn1cnc2c(=O)[nH]c(N)nc21)COC(=O)C(N)C(C)C (stereo not shown) [Form B1]

Description (stability class of the polymorphic form) [5]: Metastable Polymorph
Compound: CCCCCCCCCCCCCCCCCC(=O)OCC(CCOC(=O)C(N)C(C)C)Cn1cnc2c(=O)[nH]c(N)nc21 (stereo not shown) [Form B2]

Description (stability class of the polymorphic form) [5]: Metastable Polymorph
Compound: CCCCCCCCCCCCCCCCCC(=O)OCC(CCn1cnc2c(=O)[nH]c(N)nc21)COC(=O)C(N)C(C)C (stereo not shown) [Form B3]

Description (stability class of the polymorphic form) [5]: Metastable Polymorph
Compound: CCCCCCCCCCCCCCCCCC(=O)OCC(CCn1cnc2c(=O)[nH]c(N)nc21)COC(=O)C(N)C(C)C (stereo not shown) [Form B4]
